In assay [1] the target is PIK3CA (human) (UniProt P42336). The assay can be described thus: Inhibition of PIK3CA Kinase Activity.
Assay [2] has the same target. The assay can be described thus: Inhibition of A2780 Cell Proliferation.

pEC50, pIC50: −log10 of the molar value.

IC50 and EC50 data for 33 molecules are collected here from the Kinase Knowledgebase extract (Sharma et al. 2016).

PIK3CA (human), sequence (P42336 whole entry, looked up): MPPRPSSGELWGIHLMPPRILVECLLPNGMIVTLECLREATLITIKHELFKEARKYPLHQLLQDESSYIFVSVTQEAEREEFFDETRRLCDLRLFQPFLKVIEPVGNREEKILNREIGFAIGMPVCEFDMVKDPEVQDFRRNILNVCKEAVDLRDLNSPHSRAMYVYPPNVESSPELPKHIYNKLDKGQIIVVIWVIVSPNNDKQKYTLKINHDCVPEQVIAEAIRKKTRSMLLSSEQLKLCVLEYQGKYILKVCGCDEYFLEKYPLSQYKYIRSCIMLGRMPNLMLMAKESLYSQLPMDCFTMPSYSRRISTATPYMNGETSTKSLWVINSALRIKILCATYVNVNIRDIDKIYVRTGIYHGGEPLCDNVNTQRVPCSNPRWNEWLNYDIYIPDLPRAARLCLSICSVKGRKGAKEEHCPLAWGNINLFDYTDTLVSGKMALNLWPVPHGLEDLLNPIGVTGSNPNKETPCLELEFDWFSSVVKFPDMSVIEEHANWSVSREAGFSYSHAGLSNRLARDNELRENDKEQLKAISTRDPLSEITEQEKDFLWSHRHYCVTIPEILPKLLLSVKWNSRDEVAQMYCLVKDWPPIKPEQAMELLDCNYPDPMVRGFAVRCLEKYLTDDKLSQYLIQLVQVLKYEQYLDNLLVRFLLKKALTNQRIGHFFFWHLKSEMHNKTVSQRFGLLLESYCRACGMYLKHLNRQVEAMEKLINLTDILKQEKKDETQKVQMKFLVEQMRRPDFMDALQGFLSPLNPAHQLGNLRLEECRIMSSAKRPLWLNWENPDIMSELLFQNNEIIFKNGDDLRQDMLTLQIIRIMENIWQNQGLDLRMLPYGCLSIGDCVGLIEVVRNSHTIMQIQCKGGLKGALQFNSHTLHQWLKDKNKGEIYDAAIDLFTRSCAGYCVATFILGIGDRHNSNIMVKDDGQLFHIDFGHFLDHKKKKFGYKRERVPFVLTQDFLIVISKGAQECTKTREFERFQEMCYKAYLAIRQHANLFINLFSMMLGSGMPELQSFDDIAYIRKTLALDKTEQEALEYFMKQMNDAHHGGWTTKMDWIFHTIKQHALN

One may read the pIC50 as the IC50 on a negative log10 scale, so that one unit is a factor of ten. Low readings indicate a high IC50, high ones a low IC50. What is called pEC50 is the EC50 on a negative log10 scale, so that one unit is a factor of ten. The molecule `COCCOc1nc(-c2ccc3nc(NC(C)=O)sc3c2)cnc1N` had a negative logarithm of the IC50 (pIC50) against PIK3CA (human) [1] greater than 6.00. On PIK3CA (human) [2], this molecule showed a pEC50 greater than 5.00.
For `CC(=O)Nc1nc2cc(F)c(-c3cnc(N)c(C(F)(F)F)c3)cc2s1`, the pIC50 against PIK3CA (human) [1] is greater than 6.00. The same molecule gave a pEC50 on PIK3CA (human) [2] greater than 4.60.
On the same counts, the results for `CC(C)(C)OC(=O)NCCC(=O)Nc1cn2nc(-c3cnc(N)c(C(F)(F)F)c3)ccc2n1` are greater than 6.00 and greater than 5.00.
On the same counts, the results for `CCC(=O)Nc1cn2cc(-c3cnc(N)c(C(F)(F)F)c3)ccc2n1` are greater than 6.00 and greater than 5.00.
On to `Nc1ccc(C(=O)Nc2nc3ccc(-c4cnc(N)c(C(F)(F)F)c4)cc3s2)cn1`, for which the pIC50 on PIK3CA (human) [1] is greater than 6.00. At PIK3CA (human) [2], this molecule gave a pEC50 greater than 6.00.
With `COCCOc1nc(-c2ccc3nc(NC(=O)CN4CCCCC4)cn3c2)cnc1N`, the pIC50 against PIK3CA (human) [1] is greater than 6.00. The molecule also showed a pEC50 on PIK3CA (human) [2] greater than 5.00.
For `CCC(=O)Nc1cn2cc(-c3cnc(N)c(OC)n3)ccc2n1` the same measures were greater than 6.00 and greater than 5.00.
On PIK3CA (human) [1], `CC(=O)Nc1cn2cc(-c3cnc(N)c(OC4CN(C(=O)c5ccccc5)C4)n3)ccc2n1` gave a negative-log IC50 (pIC50) greater than 6.00. For the same molecule, the negative-log EC50 (pEC50) on PIK3CA (human) [2] was greater than 5.00.
`Nc1ncc(-c2ccc3nc(NC(=O)[C@@H]4CCCN4)cn3n2)cc1C(F)(F)F` showed a negative logarithm of the IC50 (pIC50) on PIK3CA (human) [1] greater than 6.00. Further, the pEC50 on PIK3CA (human) [2] was greater than 5.00.
`CC(=O)Nc1cn2cc(-c3cnc(N)c(C(=O)NCCN4CCCC4)n3)ccc2n1` gave a negative logarithm of the IC50 (pIC50) at PIK3CA (human) [1] greater than 6.00. Also, the pEC50 at PIK3CA (human) [2] was greater than 6.00.
In the case of `CC(=O)Nc1nc2ccc(-c3cnc(N)nc3C(F)(F)F)cc2s1`, on PIK3CA (human) [1], the pIC50 is greater than 6.00. Also, the pEC50 on PIK3CA (human) [2] is greater than 4.60.
For `CCCc1c(NC(C)=O)nc2ccc(-c3cnc(N)c(C(F)(F)F)c3)cn12`, the pIC50 at PIK3CA (human) [1] was greater than 6.00. Besides, the pEC50 at PIK3CA (human) [2] is greater than 4.60.
At PIK3CA (human) [1], `CC(=O)Nc1nc2ccc(-c3cnc(N)c(C(F)(F)F)c3)cn2c1Cl` had a pIC50 greater than 6.00. The molecule also gave a pEC50 at PIK3CA (human) [2] greater than 5.00.
Turning to `CC(=O)Nc1cn2cc(-c3cnc(N)c(-c4ccccc4F)c3)ccc2n1`, the pIC50 against PIK3CA (human) [1] is greater than 6.00. The same molecule gave a pEC50 at PIK3CA (human) [2] greater than 5.00.
Molecule `COCCCOc1nc(-c2ccc3nc(NC(C)=O)cn3c2)cnc1N` showed a pIC50 against PIK3CA (human) [1] greater than 6.00. For the same molecule, the pEC50 on PIK3CA (human) [2] was greater than 6.00.
On PIK3CA (human) [1], `CC(=O)Nc1cn2nc(-c3cnc(N)c(C(=O)NCCN)c3)ccc2n1` gave a pIC50 greater than 6.00. In addition, at PIK3CA (human) [2], the pEC50 was greater than 4.60.
As for `CC(=O)N1CCC[C@H]1C(=O)Nc1cn2cc(-c3cnc(N)c(C(F)(F)F)c3)ccc2n1`, at PIK3CA (human) [1], the pIC50 was greater than 6.00. This molecule showed a pEC50 on PIK3CA (human) [2] greater than 4.60.
`CCNN=Cc1cc(-c2ccc3nc(NC(C)=O)cn3c2)cnc1N` showed a pIC50 on PIK3CA (human) [1] greater than 6.00. At PIK3CA (human) [2], the pEC50 is greater than 5.00.
With `Nc1ncc(-c2ccc3nc(NC(=O)c4ccncc4)cn3c2)cc1C(F)(F)F`, the pIC50 on PIK3CA (human) [1] is greater than 6.00. In addition, the negative logarithm of the EC50 (pEC50) at PIK3CA (human) [2] is greater than 4.60.
On the same counts, the results for `CC(C)C(=O)Nc1cn2cc(-c3cnc(N)c(OCC(F)(F)F)n3)ccc2n1` are greater than 6.00 and greater than 5.00.
As for `CCN1CCC(OCC(=O)Nc2cn3cc(-c4cnc(N)c(C(F)(F)F)c4)ccc3n2)CC1`, the pIC50 on PIK3CA (human) [1] is greater than 6.00. The molecule also gave a pEC50 on PIK3CA (human) [2] greater than 5.00.
`COc1nc(-c2cc(F)c3nc(NC(C)=O)cn3c2)cnc1N`: on PIK3CA (human) [1], the pIC50 is greater than 6.00. At PIK3CA (human) [2], this molecule showed a pEC50 greater than 4.60.
Molecule `C/C=C/c1c(NC(C)=O)nc2ccc(-c3cnc(N)c(C(F)(F)F)c3)cn12` gave a pIC50 against PIK3CA (human) [1] greater than 6.00. The same molecule gave a negative-log EC50 (pEC50) at PIK3CA (human) [2] greater than 5.00.
On PIK3CA (human) [1], `Nc1ncc(-c2ccc3nc(NC(=O)C4CCN4)cn3c2)nc1OCC(F)(F)F` (stereo unspecified) showed a pIC50 greater than 6.00. This molecule showed a negative logarithm of the EC50 (pEC50) at PIK3CA (human) [2] greater than 5.00.
`Nc1ncc(-c2ccc3nc(NC(=O)[C@@H]4CCN4)cn3c2)cc1C(F)(F)F` showed a pIC50 against PIK3CA (human) [1] greater than 6.00. Besides, on PIK3CA (human) [2], the pEC50 is greater than 5.00.
On to `CCOCC(=O)Nc1cn2nc(-c3cnc(N)c(C(F)(F)F)c3)ccc2n1`, for which, on PIK3CA (human) [1], the pIC50 was greater than 6.00. For the same molecule, the pEC50 on PIK3CA (human) [2] was greater than 5.00.
As for `CC(=O)Nc1cn2nc(-c3cnc(N)c(C(=O)NCCN4CCCC4)c3)ccc2n1`, on PIK3CA (human) [1], the pIC50 was greater than 6.00. The pEC50 at PIK3CA (human) [2] was greater than 5.00.
`CC(=O)Nc1cn2cc(-c3cnc(N)c(C)c3)ccc2n1` had a negative-log IC50 (pIC50) against PIK3CA (human) [1] greater than 6.00. In addition, the pEC50 on PIK3CA (human) [2] was greater than 5.00.
As to `CC(=O)Nc1cn2cc(-c3cnc(N)c(-c4ccccc4)n3)ccc2n1`, the pIC50 on PIK3CA (human) [1] was greater than 6.00. Besides, the pEC50 on PIK3CA (human) [2] was greater than 5.00.
`CC(=O)Nc1cn2cc(-c3cnc(N)c(Oc4cccnc4)n3)ccc2n1`: on PIK3CA (human) [1], the pIC50 is greater than 6.00. In addition, the pEC50 at PIK3CA (human) [2] is greater than 6.00.
Consider `CNC(=O)[C@@H]1CCN1C(=O)Nc1cn2cc(-c3cnc(N)c(C(F)(F)F)c3)ccc2n1`, for which the pIC50 against PIK3CA (human) [1] was greater than 4.60. Moreover, the pEC50 on PIK3CA (human) [2] is greater than 4.60.
As to `Nc1ncc(-c2ccc3nc(NC(=O)C4CCN4)cn3n2)cc1C(F)(F)F` (stereo unspecified), the pIC50 at PIK3CA (human) [1] was greater than 6.00. This molecule showed a pEC50 at PIK3CA (human) [2] greater than 5.00.
On the same counts, the results for `CC(=O)Nc1cn2cc(-c3cnc(N)c(N4CCN(C)CC4)n3)ccc2n1` are greater than 6.00 and greater than 5.00.
